Reference: the supplement of paper PMC9938120

Legend:
Test in all cases: drug sensitivity score (DSS3, normalised partial AUC of % inhibition dose-response) (DSS (score)); higher = more sensitive (stronger inhibition of viability); extreme values may be limits of the assay
FMOC02_1 = patient-derived low-grade serous ovarian cancer cells; details: 72 h; library: FO5A; assay format: 2D, 384-well, CellTiter-Glo
In short: (§1)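 Cells were dispensed onto 384-well flat clear-bottom plates already holding compounds at five concentrations over a 10,000-fold range, using patient-derived ovarian cancer cells at passage under 10. Incubation lasted 72 h at 37 °C in 5% CO2, after which CellTiter-Glo viability data were processed in Breeze. Higher drug sensitivity scores, each a partial area under the percent-inhibition dose-response curve divided by the log of the upper asymptote, mean more sensitive cells.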

FMOC02_2 = patient-derived low-grade serous ovarian cancer cells; details: 72 h; library: FO5A; assay format: 2D, 384-well, CellTiter-Glo
In short: as §1

FMOC02_3 = patient-derived low-grade serous ovarian cancer cells; details: 72 h; library: FO5A; assay format: 2D, 384-well, CellTiter-Glo
In short: as §1

FMOC03 = patient-derived mucinous ovarian cancer cells; details: 72 h; library: FO5A; assay format: 2D, 384-well, CellTiter-Glo
In short: as §1

FMOC04 = patient-derived high-grade serous ovarian cancer cells; details: 72 h; library: FO5A; assay format: 2D, 384-well, CellTiter-Glo
In short: as §1

FMOC06 = patient-derived mucinous ovarian cancer cells; details: 72 h; library: FO5A; assay format: 2D, 384-well, CellTiter-Glo
In short: as §1

FMOC09 = patient-derived high-grade serous ovarian cancer cells; details: 72 h; library: FO5A; assay format: 2D, 384-well, CellTiter-Glo
In short: as §1

FMOC11 = patient-derived high-grade serous ovarian cancer cells; details: 72 h; library: FO5A; assay format: 2D, 384-well, CellTiter-Glo
In short: as §1

FMOC14 = patient-derived high-grade serous ovarian cancer cells; details: 72 h; library: FO5A; assay format: 2D, 384-well, CellTiter-Glo
In short: as §1

FMOC17 = patient-derived low-grade serous ovarian cancer cells; details: 72 h; library: FO5A; assay format: 2D, 384-well, CellTiter-Glo
In short: as §1

FMOC22 = patient-derived mucinous ovarian cancer cells; details: 72 h; library: FO5A; assay format: 2D, 384-well, CellTiter-Glo
In short: as §1

FMOC24 = patient-derived high-grade serous ovarian cancer cells; details: 72 h; library: FO5A; assay format: 2D, 384-well, CellTiter-Glo
In short: as §1

FMOC25_1 = patient-derived low-grade serous ovarian cancer cells; details: 72 h; library: FO4B; assay format: 2D, 384-well, CellTiter-Glo
In short: as §1

FMOC25_2 = patient-derived low-grade serous ovarian cancer cells; details: 72 h; library: FO5A; assay format: 2D, 384-well, CellTiter-Glo
In short: as §1

FMOC27 = patient-derived low-grade serous ovarian cancer cells; details: 72 h; library: FO5A; assay format: 2D, 384-well, CellTiter-Glo
In short: as §1

FMOC28 = patient-derived low-grade serous ovarian cancer cells; details: 72 h; library: FO5A; assay format: 2D, 384-well, CellTiter-Glo
In short: as §1

| Structure (SMILES) | drug sensitivity score (FMOC02_1) | drug sensitivity score (FMOC02_2) | drug sensitivity score (FMOC02_3) | drug sensitivity score (FMOC03) | drug sensitivity score (FMOC04) | drug sensitivity score (FMOC06) | drug sensitivity score (FMOC09) | drug sensitivity score (FMOC11) | drug sensitivity score (FMOC14) | drug sensitivity score (FMOC17) | drug sensitivity score (FMOC22) | drug sensitivity score (FMOC24) | drug sensitivity score (FMOC25_1) | drug sensitivity score (FMOC25_2) | drug sensitivity score (FMOC27) | drug sensitivity score (FMOC28) |
| --- | --- | --- | --- | --- | --- | --- | --- | --- | --- | --- | --- | --- | --- | --- | --- | --- |
| CCOc1ccn(-c2ccc(F)cc2)c(=O)c1C(=O)Nc1ccc(Oc2ccnc(N)c2Cl)c(F)c1 | 0 | 0.9 | 0 | 0 | 0 | 0 | 0 | 0 | 0 | 0 | 0 | 0 | 0 | 0 | 0 | 0 |
| CCn1c(-c2nonc2N)nc2cnc(Oc3cccc(NC(=O)c4ccc(OCCN5CCOCC5)cc4)c3)cc21 | 4.8 | 1.6 | 6.3 | 0.4 | 0.6 | 1.3 | 2.3 | 3.7 | 2.2 | 2 | 1.7 | 2.3 | 0 | 3.8 | 2.9 | 0.4 |
| CCn1c(C(=O)N(C2CC2)C2CC2)cc2c3c(ncn3C)c(Nc3cc(C)n(C)n3)nc21 | 0.6 | 1.4 | 4.7 | 0.9 | 0 | 0 | 2.1 | 0.1 | 0 | 2.8 | 0 | 1.05 | 0 | 0.4 | 0.8 | 0.9 |
| CN(c1ncccc1CNc1nc(Nc2ccc3c(c2)CC(=O)N3)ncc1C(F)(F)F)S(C)(=O)=O | 6.6 | 9.4 | 9.5 | 7.1 | 5.3 | 6.6 | 5.1 | 4.9 | 3.6 | 7 | 5.7 | 5.3 | 3.9 | 7.8 | 5.2 | 7.9 |
| CNC(=O)c1ccc(C)c(-n2c(C)cc(OCc3ccc(F)cc3F)c(Br)c2=O)c1 | 0 | 0 | 0 | 0 | 0 | 0 | 0 | 0 | 0 | 0.3 | 0 | 0 | 0 | 0 | 0 | 0 |
| CNc1nc(-c2ccc3c(N)n[nH]c3c2)cc(N2C[C@@H](C(=O)NC3CCCCC3)CC[C@H]2C)n1 | 3.8 | 8.7 | 0.8 | 0 | 0.5 | 4.2 | 0 | 0 | 0.6 | 0 | 0 | 0 | 6.9 | 5.7 | 1.4 | 6 |
| COc1cc2ncnc(Oc3cccc(NC(=O)Nc4cc(C(C)(C)C(F)(F)F)on4)c3)c2cc1OC | 4 | 6.6 | 4.4 | 0 | 0 | 0.3 | 1.3 | 3.3 | 0.3 | 0 | 0 | 0 | 0 | 1.1 | 0 | 0 |
| C[C@@H](Oc1ccc2[nH]nc(/C=C/c3cnn(CCO)c3)c2c1)c1c(Cl)cncc1Cl | 6.3 | 4.2 | 3.9 | 3.1 | 1.8 | 6 | 3.3 | 2.4 | 0 | 4.1 | 3.5 | 1.7 | 1 | 6.8 | 2.4 | 0.6 |
| C[C@@H]1CN(CC(=O)Nc2ccc3c(c2)Cc2cccc(-c4cc(=O)cc(N5CCOCC5)o4)c2S3)C[C@H](C)O1 | 0.5 | 0.5 | 0.2 | 0.9 | 1.9 | 0.6 | 0 | 1 | 0.3 | 0.2 | 0.8 | 5.75 | 3.4 | 1 | 0 | 0 |
| Cc1c(Cn2c(C)nc3c(C(=O)O)cc(N4CCOCC4)cc32)cccc1C(F)(F)F | 0 | 6.3 | 2.2 | 0.5 | 0.65 | 0.6 | 0 | 0 | 2.5 | 0 | 0 | 3 | 3.5 | 11.4 | 0.1 | 7.2 |
| NCC(=O)Nc1ccc(-n2nc(C(F)(F)F)cc2-c2ccc3c(ccc4ccccc43)c2)cc1 | 6.9 | 4.3 | 1.8 | 0.4 | 1.2 | 0 | 0 | 0 | 0 | 1.9 | 0.8 | 3.05 | 7.9 | 5.2 | 0 | 4.5 |
| Nc1nccc(-c2c(-c3ccc(F)cc3)ncn2C2CCCCC2)n1 | 4.9 | 3.4 | 1.1 | 1.6 | 0.05 | 0.1 | 0 | 2.5 | 0.2 | 1.6 | 0.4 | 0.85 | 1.7 | 1.8 | 1 | 6.9 |
